For assay [1], the system named is P. aeruginosa PA0-7H (Mex EF overproducer). In words: Antibiotic susceptibility testing (broth micro-dilution MIC), strain PA0-7H. The note with it: Pseudomonas aeruginosa. The format is cell-based, Pseudomonas aeruginosa. The protocol: (§1) Experiments were performed on the BAC-SCREEN platform of the UMR-MD1, with a Freedom EVO 150 liquid handling system (Tecan, Lyon, France).
(§2) We concluded that compound 3 was the best compound and suitable for a more detailed study. The same experiment was performed using chloramphenicol (4 mg/L) in combination with 3 (10 μM final concentration). Amongst the 20 clinical isolates, the growth of 15 (75%) was impaired, while 5 (25%) were resistant (data not shown). These experiments were performed to study the effect of our compounds on the natural resistance of P. aeruginosa. In addition, we were wondering if compound 3 could also increase susceptibility to other antibiotic families including ß-Lactams, fluoroquinolones and aminoglycosides, that are representative of the main classes of anti-pseudomonal agents. Experiments were performed with the ß-lactams ceftazidime and ticarcillin and ciprofloxacin and amikacin. […] . […] To better characterize compound 3, we first searched for the minimum concentration of compound that allowed killing of bacteria by doxycycline, and PAßN was used as the reference molecule.

For another assay, the system named is P. aeruginosa PA01 (wt). As to the kind of experiment: Antibiotic susceptibility testing (broth micro-dilution MIC), strain PA01. The format is cell-based, Pseudomonas aeruginosa. The note with it: for MIC: Pseudomonas aeruginosa. The procedure:
as §1
(§3) The same experiment was performed using chloramphenicol (4 mg/L) in combination with 3 (10 μM final concentration). […] These experiments were performed to study the effect of our compounds on the natural resistance of P. aeruginosa. […] Experiments were performed with the ß-lactams ceftazidime and ticarcillin and ciprofloxacin and amikacin.
A general note: Dilution methods test growth across graded concentrations, often in twofold steps.

The subject of assay [2] is P. aeruginosa CMZ091 (Mex XY overproducer). In words: Antibiotic susceptibility testing (broth micro-dilution MIC), strain CMZ091. The format is cell-based, Pseudomonas aeruginosa. The conditions noted are these: Pseudomonas aeruginosa. The procedure:
as §1, §2

The subject of assay [3] is P. aeruginosa PT629 (Mex AB overproducer). As to the kind of experiment: Antibiotic susceptibility testing (broth micro-dilution MIC), strain PT629. The format is cell-based, Pseudomonas aeruginosa. The conditions noted are these: Pseudomonas aeruginosa. The protocol:
as §1, §2

Assay [4] concerns P. aeruginosa PA01 ERY^R (Mex CD overproducer). In words: microbe, parasite or virus in culture. The format is cell-based, Pseudomonas aeruginosa. The note with it: Pseudomonas aeruginosa. The protocol: as §1, §3
The test system of a further assay is P. aeruginosa PA01. In words: Checkerboard assay with doxycycline. The conditions noted are these: Pseudomonas aeruginosa; PA01, checkerboard plate; read-out: Doxycycline MIC (alone). The format is cell-based, Pseudomonas aeruginosa. The procedure: Serial two-fold dilutions of antimicrobial agents were mixed together in a microtiter plate. The range of concentration of each drug was twice the MIC, down to the eleventh serial two-fold dilutions below this amount. Doxycycline was serially diluted along the X-axis, and the polyamino-isoprenic compound or PAßN was diluted along the Y-axis as indicated. Each well was inoculated with a bacterial inoculum of 5 x 10^5 CFU/ml, and the plates were incubated at 37°C for 18 h under aerobic conditions. Each plate also contained a row and a column in which a serial dilution of polyamino-isoprenic compound or doxycycline, respectively, was present alone to determine the MIC. The FIC index was calculated as follows: FIC index = FIC A + FIC B, where FIC A is the MIC of drug A in the combination/MIC of drug A alone and FIC B is the MIC of drug B in the combination/MIC of drug B alone. The combination was considered synergistic when the FIC index is ≤0.5, and antagonistic when the FIC index is > 4 [26].

The subject of assay [5] is clinical isolates of P. aeruginosa. In words: Doxycycline MIC of the clinical isolates (S1 Table). The format is cell-based. The note with it: Pseudomonas aeruginosa. The protocol:
The P. aeruginosa strains used in this study are described in Table 1. In addition, a series of 20 clinical isolates of P. aeruginosa obtained from the Hôpital d’Instruction des Armées Laveran, HIA-Laveran (Marseille, France) were also used in this study (S1 Table). Strains were stored at -80°C in 15% (v/v) glycerol for cryo-protection. Bacteria were routinely maintained on Mueller-Hinton (MH) agar plates and grown in cation-adjusted MH broth (MHBII) at 37°C.
as §1
Isolates Sampling location Sampling date Patient age Doxycycline MIC Main antibiotic resistance
AMK, LVX, OFX, TET, MIN, TGC, CHL, NET, CAR
PA2013-LAV17 Redon drain 15/12/2012 81 32 PIP, PIP/TZP, AZT, CAZ, TIC, TCC, FEP, FOS, TET,
TIC : ticarcillin, TCC : ticarcillin/clavulanic acid, FOS : fosfomycin, TET : tetracycline, MIN, minocycline, TCG, tigecycline, CAR : carbenicillin, PIP :
piperacillin, PIP/TZP : piperacillin/tazobactam, GEN : gentamycin, CAZ : ceftazidime, FEP : cefepime, TOB : tobramycin, IPM : imipenem, CIP :
ciprofloxacin, AMK : amikacin, LVX : levofloxacin, OFX : ofloxacin, NET : netilmicin, STR, streptomycin, MEM : meropenem.

[6] abbreviates: PA01, antibiotic alone (∅), S3 Table, read-out: MIC.
Setting [7] is: read-out: Minimal Inhibitory Concentration.

Read-outs that look alike come from different tables or passages of the source.

In the case of `NCC[C@H](O)C(=O)N[C@@H]1C[C@H](N)[C@@H](O[C@H]2O[C@H](CN)[C@@H](O)[C@H](O)[C@H]2O)[C@H](O)[C@H]1O[C@H]1O[C@H](CO)[C@@H](O)[C@H](N)[C@H]1O` [Amikacin, amikacin], the MIC worked out at 4 µg/mL in assay [1]; 8 µg/mL in the assay on P. aeruginosa PA01 (wt) (setting [6]); 32 µg/mL in assay [2]; 4 µg/mL in assay [3]; 1 µg/mL in assay [4].
On to `O=C(O)c1cn(C2CC2)c2cc(N3CCNCC3)c(F)cc2c1=O` [Ciprofloxacin, ciprofloxacin], for which the MIC is 4 µg/mL in assay [1], 0.5 µg/mL in assay [2] and 0.5 to 1 µg/mL in assay [3].
For `CC(C)(O/N=C(\C(=O)N[C@@H]1C(=O)N2C(C(=O)[O-])=C(C[n+]3ccccc3)CS[C@H]12)c1csc(N)n1)C(=O)O` [Ceftazidime, ceftazidime], the figures for the MIC (in assay [1]; with P. aeruginosa PA01 (wt) (setting [6]); in assay [3]) were 1 µg/mL, 2 µg/mL and 8 µg/mL, respectively.
As to `C[C@H]1c2cccc(O)c2C(=O)C2=C(O)[C@]3(O)C(=O)C(C(N)=O)=C(O)[C@@H](N(C)C)[C@@H]3[C@@H](O)[C@@H]21` [doxycycline], the MIC in assay [1] (setting [7]) was greater than 32 µg/mL; with P. aeruginosa PA01 (wt) (PA01, wt, mean of 3 independent experiments, read-out: Minimal Inhibitory Concentration) it was 32 µg/mL; in the assay on P. aeruginosa PA01, 32 µg/mL; in assay [5] (isolate PA2013-LAV01) it was 32 µg/mL; in assay [5] (isolate PA2013-LAV02), 32 µg/mL; in assay [5] (isolate PA2013-LAV03), greater than 32 µg/mL. Besides, the MIC was 32 µg/mL in assay [5] (isolate PA2013-LAV04); greater than 32 µg/mL in assay [5] (isolate PA2013-LAV05); 32 µg/mL in assay [5] (isolate PA2013-LAV06); 32 µg/mL in assay [5] (isolate PA2013-LAV07); 32 µg/mL in assay [5] (isolate PA2013-LAV08); greater than 32 µg/mL in assay [5] (isolate PA2013-LAV09). Also, the MIC in assay [5] (isolate PA2013-LAV10) was 32 µg/mL; in assay [5] (isolate PA2013-LAV11), 32 µg/mL; in assay [5] (isolate PA2013-LAV12), 32 µg/mL; in assay [5] (isolate PA2013-LAV13), 32 µg/mL; in assay [5] (isolate PA2013-LAV14), greater than 32 µg/mL; in assay [5] (isolate PA2013-LAV15), greater than 32 µg/mL. The MIC in assay [5] (isolate PA2013-LAV16) is 32 µg/mL; in assay [5] (isolate PA2013-LAV17) it was 32 µg/mL; in assay [5] (isolate PA2013-LAV18), greater than 32 µg/mL; in assay [5] (isolate PA2013-LAV19), 32 µg/mL; in assay [5] (isolate PA2013-LAV20) it was greater than 32 µg/mL; in assay [3] (setting [7]), greater than 32 µg/mL. For the same molecule, the MIC in assay [4] (setting [7]) came to 16 µg/mL.
As for polymyxin-B, in the assay with P. aeruginosa PA01 (wt) (PA01, wt), the “Minimal Inhibitory Concentration” value is less than 10 µM.
In the case of `CC1(C)S[C@@H]2[C@H](NC(=O)[C@H](C(=O)O)c3ccsc3)C(=O)N2[C@H]1C(=O)O` [Ticarcillin, ticarcillin], the MIC in assay [1] is 8 µg/mL; in the assay on P. aeruginosa PA01 (wt) (setting [6]) it was 32 to 64 µg/mL; in assay [2], 16 to 32 µg/mL; in assay [3], greater than 64 µg/mL; in assay [4] it was 32 to 64 µg/mL.

Values taken from paper PMC4859512, “Polyamino-Isoprenic Derivatives Block Intrinsic Resistance of P. aeruginosa to Doxycycline and Chloramphenicol In Vitro” (PLoS ONE, 2016).
